This note sets out measurements from ChEMBL document CHEMBL4118098, “Discovery of DS28120313 as a potent orally active hepcidin production inhibitor: Design and optimization of novel 4,6-disubstituted indazole derivatives” (Bioorg Med Chem Lett, 2017).

Data set [1] in a line: Fraction unbound in mouse plasma. It is filed as ADME, cell-free.
The target in data set [2] is Serine/threonine-protein kinase Nek2 (Homo sapiens) (UniProt P51955). The data set can be described thus: Inhibition of NEK2 (unknown origin) at 0.164 uM relative to control.
Chain of Serine/threonine-protein kinase Nek2 (Homo sapiens) (P51955 whole entry): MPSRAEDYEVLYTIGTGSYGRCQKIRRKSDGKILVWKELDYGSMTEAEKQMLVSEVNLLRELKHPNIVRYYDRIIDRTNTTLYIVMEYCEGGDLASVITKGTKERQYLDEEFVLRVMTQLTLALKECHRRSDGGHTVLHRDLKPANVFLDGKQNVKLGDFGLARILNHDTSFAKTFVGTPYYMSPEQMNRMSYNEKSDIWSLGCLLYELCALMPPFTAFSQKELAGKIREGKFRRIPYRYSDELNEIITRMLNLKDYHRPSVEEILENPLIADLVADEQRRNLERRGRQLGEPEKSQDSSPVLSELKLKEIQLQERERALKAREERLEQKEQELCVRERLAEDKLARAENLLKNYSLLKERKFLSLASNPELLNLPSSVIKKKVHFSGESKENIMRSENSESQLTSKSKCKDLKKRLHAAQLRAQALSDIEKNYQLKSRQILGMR
Data set [3] addresses Ribosomal protein S6 kinase alpha-3 (Homo sapiens) (UniProt P51812). The data set can be described thus: Inhibition of RSK2 (unknown origin) at 0.164 uM relative to control.
Data set [4] addresses Receptor-type tyrosine-protein kinase FLT3 (Homo sapiens) (UniProt P36888). The experiment in a line: Inhibition of FLT3 (unknown origin) at 0.164 uM relative to control.
The target of data set [5] is T1, Ribosomal protein S6 kinase (Homo sapiens) (UniProt P51812+Q9UBS0+O75676+Q15349+O75582+P23443+Q9UK32+Q15418). The data set can be described thus: Inhibition of p70S6K (unknown origin) at 0.164 uM relative to control. The data set is classed as protein assay.
Data set [6] addresses Aurora kinase B (Homo sapiens) (UniProt Q96GD4). The data set can be described thus: Inhibition of AurB (unknown origin) at 0.164 uM relative to control.
The subject of data set [7] is Tyrosine-protein kinase ABL1 (Homo sapiens), P00519 [Y253F]. The experiment in a line: Inhibition of ABL1 Y253F mutant (unknown origin) at 0.164 uM relative to control.
Data set [8] concerns the target Phosphorylase b kinase gamma catalytic chain, skeletal muscle/heart isoform (Homo sapiens) (UniProt Q16816). The data set can be described thus: Inhibition of PhKg1 (unknown origin) at 0.164 uM relative to control.
The target in data set [9] is Cyclin-dependent kinase 3 (Homo sapiens) (UniProt Q00526). The experiment in a line: Inhibition of CDK3 (unknown origin) at 0.164 uM relative to control.
Chain of Cyclin-dependent kinase 3 (Homo sapiens) (Q00526 whole entry, looked up): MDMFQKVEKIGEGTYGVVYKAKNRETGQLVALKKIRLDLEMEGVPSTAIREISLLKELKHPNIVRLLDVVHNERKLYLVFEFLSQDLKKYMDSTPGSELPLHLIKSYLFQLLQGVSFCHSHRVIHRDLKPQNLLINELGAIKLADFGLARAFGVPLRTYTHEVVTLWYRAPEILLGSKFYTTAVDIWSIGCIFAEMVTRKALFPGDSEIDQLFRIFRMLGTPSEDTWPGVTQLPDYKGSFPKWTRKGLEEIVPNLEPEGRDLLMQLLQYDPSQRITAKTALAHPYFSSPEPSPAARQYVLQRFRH
Data set [10] has as its target CDK6/cyclin D3 (Homo sapiens) (UniProt P30281+Q00534). The experiment in a line: Inhibition of CDK6/CyclinD3 (unknown origin) at 0.164 uM relative to control. The data set is classed as protein-complex assay.
In data set [11] the target is Calcium/calmodulin-dependent protein kinase type IV (Homo sapiens) (UniProt Q16566). The data set can be described thus: Inhibition of CAMK4 (unknown origin) at 0.45 uM relative to control.
Data set [12] addresses T2, Testis-specific serine/threonine-protein kinase 1 (Homo sapiens) (UniProt Q9BXA7).
T2 sequence (whole entry): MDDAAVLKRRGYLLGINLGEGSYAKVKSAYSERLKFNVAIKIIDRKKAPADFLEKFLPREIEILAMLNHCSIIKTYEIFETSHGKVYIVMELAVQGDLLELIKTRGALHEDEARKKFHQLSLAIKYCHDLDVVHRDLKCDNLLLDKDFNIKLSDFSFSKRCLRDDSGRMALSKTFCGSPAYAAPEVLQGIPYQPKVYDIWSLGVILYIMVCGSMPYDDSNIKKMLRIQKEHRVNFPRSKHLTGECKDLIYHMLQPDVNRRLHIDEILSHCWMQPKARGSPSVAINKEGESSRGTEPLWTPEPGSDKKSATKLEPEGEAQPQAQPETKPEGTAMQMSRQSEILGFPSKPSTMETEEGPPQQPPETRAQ
The data set can be described thus: Inhibition of TSSK1 (unknown origin) at 0.45 uM relative to control.

The target in data set [13] is Casein kinase I isoform delta (Homo sapiens) (UniProt P48730). The experiment in a line: Inhibition of CK1-delta (unknown origin) at 0.19 uM relative to control.
Chain of Casein kinase I isoform delta (Homo sapiens) (P48730 whole entry, looked up, canonical isoform): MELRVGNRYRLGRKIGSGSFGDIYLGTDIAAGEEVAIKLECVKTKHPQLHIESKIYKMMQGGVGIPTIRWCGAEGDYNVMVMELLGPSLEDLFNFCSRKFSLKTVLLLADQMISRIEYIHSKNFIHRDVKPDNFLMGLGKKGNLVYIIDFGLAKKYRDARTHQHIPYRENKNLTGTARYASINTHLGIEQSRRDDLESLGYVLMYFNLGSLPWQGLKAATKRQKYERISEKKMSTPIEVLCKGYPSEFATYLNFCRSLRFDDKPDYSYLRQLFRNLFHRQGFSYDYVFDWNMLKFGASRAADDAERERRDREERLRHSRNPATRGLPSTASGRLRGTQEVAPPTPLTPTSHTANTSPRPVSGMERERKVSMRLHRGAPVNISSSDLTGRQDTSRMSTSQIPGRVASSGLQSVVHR
Data set [14] addresses Tyrosine-protein kinase Fyn (Homo sapiens) (UniProt P06241). The data set can be described thus: Inhibition of FYN (unknown origin) at 0.19 uM relative to control.
Data set [15] deals with Serine/threonine-protein kinase BRSK1 (Homo sapiens) (UniProt Q8TDC3). The experiment in a line: Inhibition of BRSK1 (unknown origin) at 0.19 uM relative to control.
Data set [16] deals with Ephrin type-B receptor 1 (Homo sapiens) (UniProt P54762). The experiment in a line: Inhibition of EPHB1 (unknown origin) at 0.19 uM relative to control.
The subject of data set [17] is Proto-oncogene tyrosine-protein kinase receptor Ret (Homo sapiens), P07949 [Y791F]. The data set can be described thus: Inhibition of RET Y791F mutant (unknown origin) at 0.19 uM relative to control.
For data set [18], the target named is MAP/microtubule affinity-regulating kinase 4 (Homo sapiens) (UniProt Q96L34). The experiment in a line: Inhibition of MARK4 (unknown origin) at 0.19 uM relative to control.
Chain of MAP/microtubule affinity-regulating kinase 4 (Homo sapiens) (Q96L34 whole entry): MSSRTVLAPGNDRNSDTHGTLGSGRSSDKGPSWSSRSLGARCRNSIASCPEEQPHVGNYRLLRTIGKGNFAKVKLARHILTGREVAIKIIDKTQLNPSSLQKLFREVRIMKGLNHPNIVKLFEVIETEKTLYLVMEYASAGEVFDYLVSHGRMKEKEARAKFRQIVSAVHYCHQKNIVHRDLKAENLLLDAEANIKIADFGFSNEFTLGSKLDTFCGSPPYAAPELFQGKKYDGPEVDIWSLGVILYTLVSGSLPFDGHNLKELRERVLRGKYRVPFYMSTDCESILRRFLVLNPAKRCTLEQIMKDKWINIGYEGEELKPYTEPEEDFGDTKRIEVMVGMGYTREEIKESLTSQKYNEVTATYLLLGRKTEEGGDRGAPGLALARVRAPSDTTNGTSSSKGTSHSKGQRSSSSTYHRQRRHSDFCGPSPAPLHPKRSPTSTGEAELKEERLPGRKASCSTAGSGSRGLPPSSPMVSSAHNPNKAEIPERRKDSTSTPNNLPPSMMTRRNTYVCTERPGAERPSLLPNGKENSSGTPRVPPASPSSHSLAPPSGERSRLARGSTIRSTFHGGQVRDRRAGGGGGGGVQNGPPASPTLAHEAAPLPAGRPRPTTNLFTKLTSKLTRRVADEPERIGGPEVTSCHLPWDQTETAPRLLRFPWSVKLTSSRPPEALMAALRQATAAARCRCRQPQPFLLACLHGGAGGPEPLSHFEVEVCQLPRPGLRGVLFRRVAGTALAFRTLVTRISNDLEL
In data set [19] the target is T3, cGMP-dependent protein kinase 1 (Homo sapiens) (UniProt Q13976).
T3 sequence (whole entry): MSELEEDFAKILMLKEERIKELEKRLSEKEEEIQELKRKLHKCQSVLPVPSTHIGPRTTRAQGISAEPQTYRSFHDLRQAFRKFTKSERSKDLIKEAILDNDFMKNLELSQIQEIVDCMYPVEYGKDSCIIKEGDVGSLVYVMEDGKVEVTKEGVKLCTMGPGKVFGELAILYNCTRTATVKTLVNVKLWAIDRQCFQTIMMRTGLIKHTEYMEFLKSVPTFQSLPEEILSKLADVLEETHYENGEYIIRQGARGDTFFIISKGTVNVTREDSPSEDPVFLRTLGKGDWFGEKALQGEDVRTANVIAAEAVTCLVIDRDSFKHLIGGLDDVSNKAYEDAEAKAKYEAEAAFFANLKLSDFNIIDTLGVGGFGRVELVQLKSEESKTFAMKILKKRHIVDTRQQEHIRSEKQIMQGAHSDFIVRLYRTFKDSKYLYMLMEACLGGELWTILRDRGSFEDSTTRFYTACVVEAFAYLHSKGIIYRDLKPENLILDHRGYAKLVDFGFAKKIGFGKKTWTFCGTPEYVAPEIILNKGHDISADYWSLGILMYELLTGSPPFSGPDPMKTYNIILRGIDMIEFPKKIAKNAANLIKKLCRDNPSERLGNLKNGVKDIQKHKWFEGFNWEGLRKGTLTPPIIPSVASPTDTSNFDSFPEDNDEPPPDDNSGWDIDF
The data set can be described thus: Inhibition of PKG-alpha (unknown origin) at 0.19 uM relative to control.

The target of data set [20] is T1, Ribosomal protein S6 kinase (Homo sapiens). The data set can be described thus: Inhibition of p70S6K (unknown origin) at 0.19 uM relative to control. It is filed as protein assay.
The target in data set [21] is Serine/threonine-protein kinase Sgk1 (Homo sapiens) (UniProt O00141). The data set can be described thus: Inhibition of SGK1 (unknown origin) at 0.19 uM relative to control.
Chain of Serine/threonine-protein kinase Sgk1 (Homo sapiens) (O00141 whole entry): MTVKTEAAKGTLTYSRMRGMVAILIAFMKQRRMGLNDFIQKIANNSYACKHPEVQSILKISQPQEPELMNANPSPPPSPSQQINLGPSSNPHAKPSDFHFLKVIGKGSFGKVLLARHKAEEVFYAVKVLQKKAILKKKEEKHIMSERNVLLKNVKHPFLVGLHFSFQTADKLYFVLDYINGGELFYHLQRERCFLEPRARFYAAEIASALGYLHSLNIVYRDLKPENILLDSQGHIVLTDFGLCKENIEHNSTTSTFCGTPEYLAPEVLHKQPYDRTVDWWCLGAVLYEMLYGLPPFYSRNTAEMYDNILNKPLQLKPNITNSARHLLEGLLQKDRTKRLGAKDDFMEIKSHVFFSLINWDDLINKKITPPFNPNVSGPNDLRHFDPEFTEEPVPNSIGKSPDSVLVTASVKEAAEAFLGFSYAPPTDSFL
For data set [22], the target named is Ephrin type-A receptor 3 (Homo sapiens) (UniProt P29320). The data set can be described thus: Inhibition of EPHA3 (unknown origin) at 0.19 uM relative to control.
Data set [23] deals with Platelet-derived growth factor receptor beta (Homo sapiens) (UniProt P09619). The experiment in a line: Inhibition of PDGFR beta (unknown origin) at 0.19 uM relative to control.
Chain of Platelet-derived growth factor receptor beta (Homo sapiens) (P09619 whole entry): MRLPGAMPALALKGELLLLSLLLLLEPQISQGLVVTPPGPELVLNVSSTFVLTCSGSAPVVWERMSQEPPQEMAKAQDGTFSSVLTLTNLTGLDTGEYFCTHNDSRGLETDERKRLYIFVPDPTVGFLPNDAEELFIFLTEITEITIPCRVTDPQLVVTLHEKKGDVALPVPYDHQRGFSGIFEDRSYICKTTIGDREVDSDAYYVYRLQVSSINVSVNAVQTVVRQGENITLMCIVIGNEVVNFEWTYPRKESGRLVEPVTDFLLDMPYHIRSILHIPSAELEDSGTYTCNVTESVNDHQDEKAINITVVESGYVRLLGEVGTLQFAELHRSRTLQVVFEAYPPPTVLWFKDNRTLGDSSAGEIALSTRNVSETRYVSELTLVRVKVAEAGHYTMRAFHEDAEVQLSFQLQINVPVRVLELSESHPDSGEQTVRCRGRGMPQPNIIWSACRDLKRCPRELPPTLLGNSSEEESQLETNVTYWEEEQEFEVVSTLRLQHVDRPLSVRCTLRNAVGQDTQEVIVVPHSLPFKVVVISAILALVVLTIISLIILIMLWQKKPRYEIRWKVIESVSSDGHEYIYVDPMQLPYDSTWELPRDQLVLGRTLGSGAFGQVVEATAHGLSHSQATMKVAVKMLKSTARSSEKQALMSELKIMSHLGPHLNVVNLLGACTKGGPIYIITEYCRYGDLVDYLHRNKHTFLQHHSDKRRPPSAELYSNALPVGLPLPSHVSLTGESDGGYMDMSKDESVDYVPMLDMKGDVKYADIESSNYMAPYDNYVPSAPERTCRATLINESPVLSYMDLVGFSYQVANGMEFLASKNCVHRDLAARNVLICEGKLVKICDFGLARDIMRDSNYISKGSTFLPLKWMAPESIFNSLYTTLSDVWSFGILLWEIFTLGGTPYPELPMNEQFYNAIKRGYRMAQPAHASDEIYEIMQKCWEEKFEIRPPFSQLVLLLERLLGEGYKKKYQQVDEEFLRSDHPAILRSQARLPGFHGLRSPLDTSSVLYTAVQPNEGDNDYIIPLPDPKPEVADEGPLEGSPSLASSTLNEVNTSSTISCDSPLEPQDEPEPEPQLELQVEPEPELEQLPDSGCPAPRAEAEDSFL
Data set [24] relates to Receptor-type tyrosine-protein kinase FLT3 (Homo sapiens), P36888 [D835Y]. The data set can be described thus: Inhibition of Flt3 D835Y mutant (unknown origin) at 0.19 uM relative to control.
Data set [25] concerns the target Serine/threonine-protein kinase Nek9 (Homo sapiens) (UniProt Q8TD19). The data set can be described thus: Inhibition of NEK9 (unknown origin) at 0.19 uM relative to control.
Data set [26] concerns the target MAP/microtubule affinity-regulating kinase 3 (Homo sapiens) (UniProt P27448). The experiment in a line: Inhibition of c-TAK1 (unknown origin) at 0.19 uM relative to control.

SMILES strings stand for the structures.

Chain of Ribosomal protein S6 kinase alpha-3 (Homo sapiens) (P51812 whole entry): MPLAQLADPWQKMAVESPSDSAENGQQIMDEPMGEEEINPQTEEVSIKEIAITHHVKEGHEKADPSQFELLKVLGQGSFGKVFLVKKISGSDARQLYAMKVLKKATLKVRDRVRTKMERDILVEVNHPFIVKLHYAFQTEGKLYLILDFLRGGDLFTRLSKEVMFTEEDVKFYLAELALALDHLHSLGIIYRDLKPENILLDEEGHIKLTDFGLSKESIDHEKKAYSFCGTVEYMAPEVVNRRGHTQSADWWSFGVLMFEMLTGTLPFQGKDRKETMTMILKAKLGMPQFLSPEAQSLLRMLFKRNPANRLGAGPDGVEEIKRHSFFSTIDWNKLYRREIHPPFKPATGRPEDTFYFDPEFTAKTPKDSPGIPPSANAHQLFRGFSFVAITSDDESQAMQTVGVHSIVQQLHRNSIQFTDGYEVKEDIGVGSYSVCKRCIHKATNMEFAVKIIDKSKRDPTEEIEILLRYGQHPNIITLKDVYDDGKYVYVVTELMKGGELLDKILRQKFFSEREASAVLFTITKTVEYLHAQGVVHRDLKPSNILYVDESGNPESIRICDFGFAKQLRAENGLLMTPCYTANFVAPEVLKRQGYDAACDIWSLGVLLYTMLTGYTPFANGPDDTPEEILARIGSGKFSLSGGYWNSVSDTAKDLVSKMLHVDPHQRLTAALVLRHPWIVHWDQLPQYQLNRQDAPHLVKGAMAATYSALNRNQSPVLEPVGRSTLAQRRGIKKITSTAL
Chain of MAP/microtubule affinity-regulating kinase 3 (Homo sapiens) (P27448 whole entry, looked up): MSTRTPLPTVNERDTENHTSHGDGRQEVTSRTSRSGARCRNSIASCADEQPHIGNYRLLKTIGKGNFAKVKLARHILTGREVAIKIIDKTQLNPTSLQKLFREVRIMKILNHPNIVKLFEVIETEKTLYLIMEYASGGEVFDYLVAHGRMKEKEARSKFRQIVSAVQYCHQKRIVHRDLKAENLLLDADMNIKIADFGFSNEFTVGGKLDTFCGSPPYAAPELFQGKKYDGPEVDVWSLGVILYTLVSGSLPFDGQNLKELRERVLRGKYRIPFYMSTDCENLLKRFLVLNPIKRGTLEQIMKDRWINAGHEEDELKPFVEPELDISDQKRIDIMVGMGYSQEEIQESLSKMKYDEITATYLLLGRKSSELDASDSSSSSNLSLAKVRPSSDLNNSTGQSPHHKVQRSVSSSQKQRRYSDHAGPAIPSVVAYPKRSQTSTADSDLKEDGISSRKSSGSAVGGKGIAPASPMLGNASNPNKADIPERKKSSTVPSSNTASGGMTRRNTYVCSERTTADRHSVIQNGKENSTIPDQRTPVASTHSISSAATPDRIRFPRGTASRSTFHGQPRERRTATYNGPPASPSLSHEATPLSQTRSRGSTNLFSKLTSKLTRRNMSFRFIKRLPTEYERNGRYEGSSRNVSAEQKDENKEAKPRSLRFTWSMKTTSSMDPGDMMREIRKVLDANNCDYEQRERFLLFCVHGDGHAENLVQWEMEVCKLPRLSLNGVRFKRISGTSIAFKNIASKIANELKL

For orientation: fraction unbound means free concentration divided by total concentration. One may read the inhibition as the relative decrease from the control value, in per cent. As for `COC(=O)Nc1cc(-c2c(C3CC3)n[nH]c2C)cc2[nH]ncc12`, the fraction unbound in [1] came out at 0.24. Also, the inhibition in data set [2] came to 1%; in data set [3], 1.7%; in [4], 5%; in data set [5] it was 14.7%; in data set [6] it was 1%; in data set [7], 6.7%. Besides, the inhibition in [8] is 1%; in [9], -8.3%; in data set [10], 2.7%.

As to `Cc1n[nH]c(C)c1-c1ccc2c(NC(=O)c3ccc(N4CCN(C)CC4)cc3)n[nH]c2c1`, the inhibition in [11] was 0%; in data set [12], -1%.

As to `Cc1[nH]nc(C2CC2)c1-c1ccc2c(-c3ccc(N4CCN(C)CC4)nc3)n[nH]c2c1`, the inhibition in [13] came to 0%; in [14], 12.3%; in data set [15], 1.7%; in data set [16] it was 1.3%; in [17] it was 40%; in data set [18], 0.7%. The inhibition was -3.7% in [19]; 5.7% in data set [20]; 6.3% in data set [21]; 1.3% in data set [22]; 97% in [23]; 93.7% in data set [24]. Also, the inhibition in data set [25] was -3%; in data set [26], 0.3%.
